According to patent US8288380B2, “Thiophenediamine derivative having urea structure” (Santen Pharmaceutical Co., Ltd., priority 2008, dated 2012):

Tests used:
[1] = tested on: HDAC (HeLa nuclear extract); assay: Test for evaluation of HDAC inhibitory activity (HDAC Fluorimetric Assay/Drug Discovery Kit, Biomol); assay type: biochemical; conditions: final concentration of the test compound 30 μM, values more than 100% shown as 100%
Experimental: Using HDAC Fluorimetric Assay/Drug Discovery Kit (manufactured by Biomol), HDAC inhibitory activity of the present compounds was measured according to the protocol included with the kit. The kit contains Buffer, HeLa nuclear extract (includes HDAC), Substrate, Developer and Trichostatin A HDAC inhibitor).
A test compound was dissolved in dimethyl sulfoxide (hereinafter referred to as “DMSO”), whereby a 2 mg/mL solution was prepared. Then, the resulting solution was diluted with Buffer containing 5% DMSO, whereby a 150 μM test compound solution was prepared.
1) To a 384-well culture plate, the test compound solution was added in an amount of 2 μL per well.
2) HeLa nuclear extract was diluted 30-fold with Buffer. The resulting solution was added in an amount of 3 μL per well, and then incubation was performed at 37° C. for 2 hours.
3) Substrate was diluted 500-fold with Buffer. The resulting solution was added in an amount of 5 μL per well (the final concentration of the test compound was 30 μM), and then incubation was performed at 37° C. for 10 minutes.
4) Developer was diluted 20-fold with Buffer and Trichostatin A (2 μM) was added to it. The resulting solution was added in an amount of 10 μL per well, and then incubation was performed at room temperature for 15 minutes.
5) The fluorescence intensity of each well was measured using multilabel counter ARVO (manufactured by Wallac) with excitation at 360 nm and emission at 460 nm.
6) A control data was obtained from the same experiment except that Buffer containing 5% DMSO was added instead of the test compound solution as the above-mentioned procedure from 1) to 5).
7) A blank data was obtained from the same experiment except that Buffer containing 5% DMSO was added instead of the test compound solution and that Buffer was added instead of Hela nuclear extract as the above-mentioned procedure from 1) to 5).
Enzyme inhibitory rate (%) was calculated using the following equation. (Enzyme Inhibitory Rate(%))=100×[1−{(Fluorescence Intensity of Test Compound Solution)−(Florescence Intensity of Blank)}/{(Florescence Intensity of Control)−(Florescence Intensity of Blank)}] (Test Results)

[2] = tested on: human trabecular meshwork cell line (TM-1 cells); assay: Test for evaluation of effect of morphological change on trabecular meshwork cells (cell shape index, CSI); assay type: cell-based; conditions: final concentration 10 μM, 24 hours incubation, Control 0.694, lower CSI indicates greater morphological changes
Source text: Further, as a result of studying an effect morphological change of the present compound on trabecular meshwork cells, i.e., an effect of morphological change of the present compound on trabecular meshwork cells in an evaluation system using the cell shape index (hereinafter referred to as “CSI”) reported in The Journal of Clinical Investigation, 103, 1141-1150 (1999) as an index, it was found the present compound has an excellent effect of morphological change on trabecular meshwork cells.
As a method for evaluating a cellular morphological change, an evaluation system using the cell shape index (hereinafter referred to as “CSI”) as an index has been reported in The Journal of Clinical Investigation, 103, 1141-1150 (1999). Therefore, according to the method described in the above document, an effect of morphological change of the present compounds on trabecular meshwork cells was evaluated.
A human trabecular meshwork cell line (hereinafter referred to as “TM-1 cells”) reported in Investigative Ophthalmology & Visual Science, 43, 151-161 (2002) was used.
Culture medium 1: A reagent was prepared by adding fetal bovine serum (10%), L-glutamine (2 mM), amphotericin B ([…]), and gentamicin (25 μg/mL) to Dulbecco's Modified Eagle Medium (hereinafter referred to as “D-MEM”).
Culture medium 2: A reagent was prepared by adding fetal bovine serum (3%), L-glutamine (2 mM), amphotericin B (2.5 μg/mL), and gentamicin (25 μg/mL) were added to D-MEM.
Cell staining liquid: A mixed liquid of Calcein-AM (16 μM) and Hoechst 33342 (40 μM) was prepared by diluting a Calcein-AM solution (cytoplasmic staining reagent, manufactured by Dojindo Laboratories) and a Hoechst 33342 solution (nuclear staining reagent, manufactured by Dojindo Laboratories) with D-MEM containing L-glutamine (2 mM), amphotericin B (2.5 μg/mL), and gentamicin (25 μg/mL).
TM-1 cells subcultured at 37° C. in a 8% carbon dioxide gas atmosphere were treated with a trypsin/EDTA solution (0.05% trypsin and 0.53 mM tetrasodium ethylenediaminetetraacetate) at 24 hours before performing a drug treatment mentioned below and seeded on a 96-well culture plate. The culture medium 1 was used for the subculture of the cells. The culture medium 2 was used for the cell culture after seeding the cells on the plate.
A test compound was dissolved in DMSO, whereby a 5 mM solution was prepared. Then, the resulting solution was diluted with the culture medium 2, whereby a 200 μM test compound solution was prepared.
It has been reported that Y-27632 which is a Rho kinase inhibitor induces a morphological change in trabecular meshwork cells in Investigative Ophthalmology & Visual Science, 42, 137-144 (2001). Therefore, Y-27632 (produced according to the method described in WO 90/05723) was used as a positive control, and dissolved in DMSO in the same manner as the test compound, whereby a 5 mM solution was prepared, and then, the resulting solution was diluted with the culture medium 2, whereby a 200 μM positive control compound solution was prepared.
1) To a 96-well culture plate, a solution of TM-1 cells adjusted to a cell density of […] was added in an amount of 95 μL (1.5×10^4 cells) per well.
2) Incubation was performed at 37° C. in a 8% carbon dioxide gas atmosphere for 24 hours.
3) The test compound solution or positive control compound solution was added in an amount of 5 μL per well (the final concentration of the test compound or positive control compound was 10 μM). As a control, the culture medium 2 containing DMSO (4%) was added in an amount of 5 μL per well.
4) Incubation was performed at 37° C. in a 8% carbon dioxide gas atmosphere for 24 hours.
5) The cell staining liquid was added in an amount of 10 μL per well.
6) Incubation was performed at 37° C. in a 8% carbon dioxide gas atmosphere for 1 hour to stain the cells.
7) A 37% formaldehyde solution was added in an amount of 10 μL per well.
8) Incubation was performed at room temperature for 1 hour to fix the cells. […]

| Structure (SMILES) | Enzyme Inhibitory Rate (%) [1] | CSI [2] |
| --- | --- | --- |
| CN(C)CCN(Cc1ccc(C(=O)Nc2cscc2N)nc1)C(=O)Nc1ccc2c(c1)OCCO2 [Compound No. 1-1, N-(4-Aminothiophen-3-yl)-5-[3-(2,3-dihydrobenzo[1,4]dioxin-6-yl)-1-(2-dimethylaminoethyl)ureidomethyl]pyridine-2-carboxylic acid amide] | 97% | 0.527 |
| CN(C)CCN(Cc1ccc(C(=O)Nc2cscc2N)nc1)C(=O)Nc1ccsc1 [Compound No. 1-7, N-(4-Aminothiophen-3-yl)-5-[1-(2-dimethylaminoethyl)-3-(thiophen-3-yl)ureidomethyl]pyridine-2-carboxylic acid amide] | 100% | 0.523 |
| CN(C)CCN(Cc1ccc(C(=O)Nc2cscc2N)nc1)C(=O)Nc1ccc(F)c(F)c1 [Compound No. 1-18, N-(4-Aminothiophen-3-yl)-5-[3-(3,4-difluorophenyl)-1-(2-dimethylaminoethyl)ureidomethyl]pyridine-2-carboxylic acid amide] | 97% | 0.519 |
| CN(C)CCCN(Cc1ccc(C(=O)Nc2cscc2N)nc1)C(=O)Nc1ccsc1 [Compound No. 1-24, N-(4-Aminothiophen-3-yl)-5-[1-(3-dimethylaminopropyl)-3-(thiophen-3-yl)ureidomethyl]pyridine-2-carboxylic acid amide] | 100% | 0.509 |
| Nc1cscc1NC(=O)c1ccc(CN(CCCN2CCOCC2)C(=O)NC2CCCC2)cn1 [Compound No. 1-34, N-(4-Aminothiophen-3-yl)-5-[3-cyclopentyl-1-[3-(morpholin-4-yl)propyl]ureidomethyl]pyridine-2-carboxylic acid amide] | 97% | 0.516 |
| Nc1cscc1NC(=O)c1ccc(CN(CCCCN2CCOCC2)C(=O)NCCc2ccccc2)cn1 [Compound No. 1-59, N-(4-Aminothiophen-3-yl)-5-[1-[4-(morpholin-4-yl)butyl]-3-phenethylureidomethyl]pyridine-2-carboxylic acid amide] | 97% | 0.500 |
| CCOC(=O)CNC(=O)N(CCCN1CCOCC1)Cc1ccc(C(=O)Nc2cscc2N)nc1 [Compound No. 1-88, N-(4-Aminothiophen-3-yl)-5-[3-ethoxycarbonylmethyl-1-[3-(morpholin-4-yl)propyl]ureidomethyl]pyridine-2-carboxylic acid amide] | 95% | 0.539 |
| CN(C)CCN(Cc1ccc(C(=O)Nc2cscc2N)nc1)C(=O)Nc1nccs1 [Compound No. 1-103, N-(4-Aminothiophen-3-yl)-5-[1-(2-dimethylaminoethyl)-3-(thiazol-2-yl)ureidomethyl]pyridine-2-carboxylic acid amide] | 97% | 0.496 |
| CN(C)CCN(Cc1ccc(C(=O)Nc2cscc2N)nc1)C(N)=O [Compound No. 1-104, N-(4-Aminothiophen-3-yl)-5-[1-(2-dimethylaminoethyl)ureidomethyl]pyridine-2-carboxylic acid amide] | 97% | 0.505 |
| C[C@@H](N)[C@H]1CC[C@H](C(=O)Nc2ccncc2)CC1 [Y-27632, reference compound] | – | 0.627 |

Continued, in another order:

| Enzyme Inhibitory Rate (%) [1] | Structure (SMILES) | CSI [2] |
| --- | --- | --- |
| 96% | CN(C)CCN(Cc1ccc(C(=O)Nc2cscc2N)nc1)C(=O)NCCc1ccccc1 [Compound No. 1-8, N-(4-Aminothiophen-3-yl)-5-[1-(2-dimethylaminoethyl)-3-phenethylureidomethyl]pyridine-2-carboxylic acid amide] | 0.548 |
| 97% | CC(C)NC(=O)N(CCCN1CCN(C)CC1)Cc1ccc(C(=O)Nc2cscc2N)nc1 [Compound No. 1-56, N-(4-Aminothiophen-3-yl)-5-[3-isopropyl-1-[3-(4-methylpiperazin-1-yl)propyl]ureidomethyl]pyridine-2-carboxylic acid amide] | 0.422 |
| 100% | Nc1cscc1NC(=O)c1ccc(CN(CCN2CCCC2)C(=O)NC2CCCC2)cn1 [Compound No. 1-71, N-(4-Aminothiophen-3-yl)-5-[3-cyclopentyl-1-[2-(pyrrolidin-1-yl)ethyl]ureidomethyl]pyridine-2-carboxylic acid amide] | 0.481 |
| 100% | CN1CCN(CCN(Cc2ccc(C(=O)Nc3cscc3N)nc2)C(=O)NCCc2ccc3c(c2)OCO3)CC1 [Compound No. 1-77, N-(4-Aminothiophen-3-yl)-5-[2-[3-(benzo[1,3]dioxol-5-yl)]ethyl-1-[2-(4-methylpiperazin-1-yl)ethyl]ureidomethyl]pyridine-2-carboxylic acid amide] | 0.515 |
